In the NIST ThermoML archive (doi:10.1021/je700029q):
± gives the expanded uncertainty stated by the source.

Tests used:
[1] = xn = mol fraction of the nth substance listed; conditions: 101 kPa, Liquid
[2] = refractive index (Na D-line) (dimensionless); xn = mol fraction of the nth substance listed; conditions: 298.15 K, 101 kPa, Liquid

CCOS(=O)(=O)[O-].CCn1cc[n+](C)c1 [1-ethyl-3-methylimidazolium ethyl sulfate] + CC(C)O
[1]
Conditions | mass density, 298.15 K [kg/m3] | mass density, 313.15 K [kg/m3] | mass density, 328.15 K [kg/m3] | speed of sound, 298.15 K [m/s] | speed of sound, 313.15 K [m/s] | speed of sound, 328.15 K [m/s] | viscosity, 298.15 K [mPa·s] | viscosity, 313.15 K [mPa·s] | viscosity, 328.15 K [mPa·s]
x2 = 0 | 1237.6 ± 9.2 | 1227.5 ± 9 | 1217.5 ± 8.9 | 1679 ± 8 | 1643 ± 8 | 1605 ± 8 | 97.58 ± 5.1 | 50.01 ± 1.3 | 29.18 ± 0.92
x2 = 0.1228 | 1214.3 ± 7 | 1204.4 ± 6.9 | 1194.5 ± 6.8 | 1644 ± 8 | 1608 ± 8 | 1569 ± 8 | 69.71 ± 2.3 | 37.79 ± 1.1 | 22.97 ± 0.67
x2 = 0.2066 | 1196.4 ± 5.7 | 1186.4 ± 5.6 | 1176.3 ± 5.5 | 1611 ± 7 | 1576 ± 7 | 1537 ± 7 | 53.67 ± 1.2 | 30.34 ± 0.82 | 18.93 ± 0.52
x2 = 0.309 | 1170.9 ± 4.4 | 1160.9 ± 4.3 | 1150.7 ± 4.2 | 1570 ± 7 | 1534 ± 7 | 1494 ± 7 | 40.1 ± 0.99 | 23.56 ± 0.6 | 15.2 ± 0.4
x2 = 0.399 | 1144.9 ± 3.3 | 1134.7 ± 3.3 | 1124.3 ± 3.2 | 1529 ± 7 | 1491 ± 7 | 1451 ± 7 | 29.79 ± 0.7 | 18.23 ± 0.44 | 12.1 ± 0.3
x2 = 0.4977 | 1111.8 ± 2.4 | 1101.3 ± 2.3 | 1090.7 ± 2.3 | 1475 ± 6 | 1439 ± 6 | 1399 ± 6 | 21.14 ± 0.47 | 13.41 ± 0.31 | 9.184 ± 0.22
x2 = 0.6341 | 1054.2 ± 1.3 | 1043.5 ± 1.3 | 1032.6 ± 1.2 | 1399 ± 6 | 1360 ± 6 | 1318 ± 6 | 12.4 ± 0.26 | 8.274 ± 0.18 | 5.878 ± 0.14
x2 = 0.7223 | 1008.5 ± 0.8 | 997.4 ± 0.8 | 986.2 ± 0.8 | 1342 ± 6 | 1302 ± 6 | 1259 ± 5 | 8.462 ± 0.18 | 5.753 ± 0.13 | 4.15 ± 0.099
x2 = 0.8551 | 920.2 ± 0.7 | 908.6 ± 0.7 | 896.6 ± 0.7 | 1251 ± 5 | 1207 ± 5 | 1161 ± 5 | 4.475 ± 0.1 | 3.081 ± 0.072 | 2.225 ± 0.053
x2 = 0.9706 | 814.1 ± 0.9 | 801.7 ± 0.9 | 788.5 ± 0.9 | 1164 ± 5 | 1113 ± 5 | 1063 ± 5 | 2.499 ± 0.058 | 1.658 ± 0.042 | 1.147 ± 0.033

[2]
Conditions | refractive index
x2 = 0 | 1.4794 ± 0.0013
x2 = 0.1228 | 1.47434 ± 0.0012
x2 = 0.2066 | 1.47057 ± 0.0012
x2 = 0.309 | 1.46502 ± 0.0011
x2 = 0.399 | 1.45926 ± 0.0011
x2 = 0.4977 | 1.45177 ± 0.001
x2 = 0.6341 | 1.43881 ± 0.00095
x2 = 0.7223 | 1.42818 ± 0.00092
x2 = 0.8551 | 1.40784 ± 0.00088
x2 = 0.9706 | 1.38306 ± 0.00087
